This experiment relates to PD-1/PD-L1 mediated inhibitory signal to T cell activation (CHO-PD-L1-CD3L cells and Jurkat-PD-1-NFAT cells). Put plainly: Blocking of PD-1/PD-L1 mediated inhibitory signal to T cell activation at cell level (NFAT luciferase reporter, co-culture). The experiment is classed as cell-based. The following applies: Homo sapiens, CHO-PD-L1-CD3L / Jurkat-PD-1-NFAT co-culture, 6 h. The method, then: In order to test the effect of interaction between PD-1 and PD-L1 on T cell activation signal in immune response, CHO-PD-L1-CD3L cells stably expressing human PD-L1 molecule and anti-CD3 single-chain antibody (ScFv) and Jurkat-PD-1-NFAT cells stably expressing human PD-1 molecule and NFAT reporter gene were constructed. When two kinds of cells are incubated together, anti-CD3 ScFv on the CHO cell surface and membrane CD3 molecule of Jurkat cell combine to transmit an activation signal into Jurkat cell. However, due to the binding of PD-L1 on the CHO cell surface and PD-1 molecule on the Jurkat cell surface at the same time, a signal for inhibiting activation is transmitted inward, so that luciferase reporter gene cannot be expressed. When an immunocheckpoint antibody or small-molecule inhibitor is added, the binding of PD-1 and PD-L1 is blocked, the NFAT pathway activated by CD3 ScFv antibody and CD3 cross-linking mediated T cell activation signal is no longer affected by the inhibitory signal, and the downstream luciferase reporter gene starts to be expressed. Chemiluminescence signals proportional to reporter gene activation can be detected by adding a catalytic substrate.
CHO-PD-L1-CD3L cells expressing human PD-L1 molecule and anti-CD3 single-chain antibody (ScFv) and Jurkat-PD-1-NFAT cells stably expressing human PD-1 molecule and NFAT reporter gene were all independently constructed and presented by Dr. Chen Bo (KeyMed Biosciences (Chengdu) Co., Ltd. Puromycin (Cat # 540411) and Hygromycin B (Cat # V900372) for stable culture of transfected cells were purchased from Sigma, PMA (Cat # P1585) was purchased from Sigma, and the anti human PD-L1 antibody (Cat # GMP-A066) was purchased from Novoprotein Company. The Luciferase substrate solution (Cat # E6485) and the luciferase-specific cell lysate 5×(Cat # E1531) were purchased from Promega company. The fluorescence detector Tecan (Spark 10M) was purchased from Tecan Company in Switzerland.
Main Process of Experiment • (1) On the day before the experiment, 100 μL of CHO-PD-L1-CD3L cells (about 4×10^4 cells/well) were inoculated at 37° C. overnight in a 96-well cell culture plate, and the culture medium was DMEM/F12 containing 10% FBS, 8 μg/mL Puromycin and 200 μg/mL Hygromycin B. • (2) The test compound was diluted with 0.1% PBST to obtain solutions with different concentration gradients, and then added into 96-well plates and incubated for 30 min in advance. The RPMI 1640 complete medium containing 10% FBS, 8 μg/mL Puromycin and 200 μg/mL Hygromycin B was used to adjust the Jurkat-PD-1-NFAT cell count to 2×10^5 cells/mL, and 100 ng/mL PMA (10 mg/mL storage solution prepared with DMSO) was added to amplify the T cell activation signal. 100 μL of the Jurkat-PD-1-NFAT cells were added into each well of the 96-well plates for co-culture. • (3) During the test reaction, control groups were set, including the solvent control without adding the test compound and the positive control with the addition of the […] in the experimental system. All tests were conducted by use of multiple holes. • (4) Incubation was continued at 37° C. for 6 h, 40 μL of 5×cell lysate was added directly, the solution was mixed well and placed at room temperature for 10 min to completely lyse cells. 50 μL of lysed cell solution was transferred to a fluorescence detection plate, 30 μL of luciferase substrate solution was then added, and the chemiluminescence detection program was immediately selected on the fluorescence detector for determination. • (5) Calculation formula of the inhibition rate of the test compound against T cell activation signal at the cell level: The inhibition rate against T cell activation signal (%)=(original chemiluminescence value of the test hole−solvent control)/(the highest original chemiluminescence value determined in the compound test hole−solvent control)×100%. […]

`COCC12CCC(CCN3CCc4c(nc(C(=O)Nc5cccc(-c6cccc(NC(=O)c7nc8c(n7C)CCN(CC79CCC(C(=O)O)(CC7)C9)C8)c6Cl)c5C)n4C)C3)(CC1)C2` [Compound I-12, 4-((2-((2-chloro-3′-(5-(2-(4-(methoxymethyl)bicyclo[2.2.1]heptan-1-yl)ethyl)-1-methyl-4,5,6,7-tetrahydro-1H-imidazo[4,5-c]pyridine-2-carboxamido)-2′-methyl-[1,1′-biphenyl]-3-yl)carbamoyl)-1-methyl-1,4,6,7-tetrahydro-5H-imidazo[4,5-c]pyridin-5-yl)methyl)bicyclo[2.2.1]heptane-1-carboxylic acid] showed an EC50 of 38.3 nM. The compound `Cn1c(C(=O)Nc2cccc(-c3cccc(NC(=O)c4nc5c(n4C)CCN(CC46CCC(C(=O)O)(CC4)C6)C5)c3Cl)c2Cl)nc2c1CCN(CCO)C2` [Example 180] showed an EC50 of 108 nM.
